From patent US9327145B2, “Cosmetic compositions comprising manikara multinervis and extracts thereof” (Cognis IP Management GmbH, priority 2009, dated 2016)
Marks after values point to notes of the source that are not given here.

Tests used:
[1] = tested on: collagen type I; assay: Anti-glycation: non enzymatic glycation of collagen type I incubated with glucose (Schiff's bases fluorescence); type: biochemical; conditions: 3 weeks at 45° C., mean +/- SEM
Method: In order to evaluate the potential of Manilkara multinervis extract to reduce the rate of “non enzymatic” glycation of proteins such as skin collagen, the extract was tested in comparison to aminoguanidine as a positive reference. The “non-enzymatic” glycation results from the reaction of proteins with reducing sugars such as glucose and […]. These sugars react with the free amino groups present in the proteins to form the so called “Schiff's bases”, ultimately resulting in so-called “advanced glycosylation endproducts”. In human skin, the process of “non enzymatic” glycation causes in time a decrease of strength and an atrophy of dermis which are characteristic of skin aging.
The extracts were tested in vitro by incubating collagen type I in solution with glucose during 3 weeks at 45° C. Then the level of “non enzymatic” glycation was determined by measuring the rate of “Schiff's bases” through the record of fluorescence at 430 nm (excitation at 350 nm) of the supernatant solution recovered after centrifugation of the solutions during 15 minutes at 3500 rpm (revolution per minute). The rates of “non enzymatic” glycation were calculated as % referring to the control with glucose. The assays were repeated up to 6 times and the results were expressed in percentage referring to the control with glucose then presented as a mean+/− the SEM (standard error of mean) and statistically evaluated by the student t test. All % values given are weight-%.

[2] = tested on: human dermal fibroblasts; assay: Pro-collagen (type I) effect: released type I collagen (ELISA) and cellular proteins (Bradford); type: cell-based; conditions: 5 μg/ml; 3 days; percentage referring to the control medium; mean +/- SEM
Method: Manilkara multinervis extract according to example 1 was incubated on human dermal fibroblasts cultured in vitro and the release of collagen type I was measured in cell culture medium through an ELISA method. It was tested in comparison to the positive reference vitamin C (ascorbic acid). The human dermal fibroblasts were cultured within growth medium enriched with Fetal Calf Serum (FCS) and incubated for 1 day at 37° C. […] Thereafter, the cell number was measured by quantification of cellular proteins (Bradford's method) while the level of collagen synthesis was determined by quantification of collagen peptides in cell culture medium (ELISA method). The results were calculated through a reference range of proteins or collagen and then expressed in percentage referring to the control medium and presented as a mean+/−SEM (Standard Error of Mean) from 4 assays in triplicate.

[3] = tested on: human dermal fibroblasts; assay: Fibulin-5 synthesis by immunocytochemistry (ICC); type: cell-based; conditions: 10 ng/ml, mean only
Method: Manilkara multinervis extract according to example 1 was incubated on human dermal fibroblasts cultured in vitro and the synthesis of fibulin-5 was measured in cell culture medium through an ICC method. It was tested in comparison to the positive reference TGF-β1 (Transforming Growth Factor-β1).
(§1) The human dermal fibroblasts were cultured within growth medium enriched with Fetal Calf Serum (FCS) and incubated for 3 days at 37° C. Then the growth medium was exchanged for a standard medium containing FCS at 1% and the Manilkara multinervis extract according to example 1 and incubated for 5 days at 37° C. Thereafter, the fibulin-5 synthesis was measured by immunocytochemistry (ICC) technique. The results were expressed in percentage of staining occupation and presented for 2 assays as a mean+/−SEM (Standard Error of Mean) of 6 measurements.

[4] = tested on: human dermal fibroblasts; assay: Tropoelastin synthesis by immunocytochemistry (ICC); type: cell-based; conditions: 10 ng/ml
Method: Manilkara multinervis extract according to example 1 was incubated on human dermal fibroblasts cultured in vitro and the synthesis of tropoelastin was measured in cell culture medium through an ICC method. It was tested in comparison to the positive reference TGF-β1 (Transforming Growth Factor-β1).
as §1, with “several” for “for 5”, “tropoelastin” for “fibulin-5”, “3” for “2”

**Q.** With `N=C(N)NN` [Aminoguanidine, aminoguanidine] as the compound, how does the “Rate of Schiff's bases in %/control with glucose” value (from here on “Rate … in %/control with glucose”) ([1]; 0.02%) read?
**A.** 47 +/− 1** (n = 6) %/control with glucose

**Q.** And the “Rate … in %/control with glucose” value ([1]; 0.05%)?
**A.** 34 +/− 1** (n = 6) %/control with glucose

**Q.** And the “Rate … in %/control with glucose” value ([1]; 0.1%)?
**A.** 27 +/− 1** (n = 6) %/control with glucose

**Q.** How did the “Cellular Proteins” value [2] turn out when `O=C1O[C@H]([C@@H](O)CO)C(O)=C1O` [Vitamin C, ascorbic acid] was run?
**A.** 97 +/− 4%

**Q.** What about the “Released type I Collagen” value [2] of the same compound?
**A.** 138 +/− 14** %

**Q.** With “TGF-β1: positive reference TGF-β1 (Transforming Growth Factor-β1)” as the compound, how does the “% of staining occupation Assay 1 (fibulin-5)” value ([3]; Assay 1, control 15.57 +/− 4.38) read?
**A.** 79.99%

**Q.** And the “% of staining occupation Assay 2 (fibulin-5)” value ([3]; Assay 2, control 2.65 +/− 0.36)?
**A.** 18.8%

**Q.** And the “stimulation of tropoelastin synthesis (mean)” value [4]?
**A.** 82%
